Measured values published in the supplement of paper PMC6723410.

What follows are molecules tested on GUMC-403 (assay: viability at highest tested concentration (max response) relative to DMSO (% of DMSO control); higher = less cytotoxic). Details: library / dose series: MIPE library, 11-point 1:3 dilution; top concentration 1.84 µM; 48 h.
Summary of the method: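 Plates of 1536 wells were seeded with 700 patient-derived GUMC-403 papilloma cells per well, grown by conditional reprogramming, in 5 μL F + Y medium and kept overnight at 37 °C. Compounds followed at 23 nL by pin tool over an 11-point 1:3 series, for 48 h. After a CellTiter-Glo luminescence read on a ViewLux, signals were set against vehicle wells as 100% and empty wells as 0%. The reported number is viability at the highest tested concentration relative to vehicle control.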

Row | SMILES | viability
1 | CCC(=C/[C@H](C)C/C=C/C(C)=C/[C@@H](C)C(=O)[C@@H](C)[C@H](O)[C@@H](C)C/C(C)=C/C(=O)O)/C=C/[C@@H]1OC(=O)C=C[C@@H]1C | 97.2

Same assay, conditions: library / dose series: MIPE library, 11-point 1:3 dilution; top concentration 46.1 µM; 48 h

Row | SMILES | viability
2 | CC1CNc2c(cccc2[S+](=O)([O-])N[C@@H](CCCNC(=N)N)C(=O)N2CC[C@@H](C)C[C@@H]2C(=O)O)C1 (stereo not given in full) | 125
3 | C[C@H](CCC(=O)O)[C@H]1CCC2C3C[C@H](O)[C@@H]4C[C@H](O)CC[C@]4(C)C3CC[C@@]21C (stereo not given in full) | 108
4 | Cc1ccc(C(=O)Nc2cccc(C(F)(F)F)c2)cc1-c1ccc2nc(NCCN3CCOCC3)ncc2c1 | 55.5
5 | CN1C(=O)C(=C/2N(C(=O)N(C3CC3)C(=O)C2=C1/NC4=CC=C(I)C=C4F)C5=CC=CC(=C5)NC(C)=O)\C | 87.7
6 | CC(C)NCC(O)c1ccc(O)c(O)c1 (stereo not given) | 127
7 | CN(C)c1ccccc1CN1CCCN(Cc2ccccc2N(C)C)C1c1ccncc1 | 97.4
8 | O=[N+]([O-])c1ccc(Nc2ccccc2-c2ccccc2)c2nonc12 | 106
9 | Nc1nc(N)nc(-c2cc(Cl)ccc2Cl)n1.O=C(O)/C=C\C(=O)O | 112
10 | C[C@](Cc1c[nH]c2ccccc12)(NC(=O)OC1C2CC3CC(C2)CC1C3)C(=O)NC[C@H](NC(=O)CCC(=O)O)c1ccccc1 (stereo not given in full) | 103
11 | O=C(Nc1nc2ccccc2n1CCN1CCOCC1)c1cccc([N+](=O)[O-])c1 | 124
12 | C[C@H](NC(=O)/C(C#N)=C/c1cccc(Br)n1)c1ccccc1 | 31.7
13 | CN1CCC(=C2c3ccccc3CCc3sccc32)CC1 | 115
14 | COc1cc2nc(N(C)CCCNC(=O)C3CCCO3)nc(N)c2cc1OC (stereo not given) | 116
15 | FC1=CC=C(C=C1)N2/C=C\C=C(C(=O)NC3=CC=C(OC4=C5C=C[NH]C5=NC=C4)C(=C3)F)/C2=O | 98.8
16 | CC[C@H]1OC(=O)[C@H](C)[C@@H](O[C@H]2C[C@@](C)(OC)[C@@H](O)[C@H](C)O2)[C@H](C)[C@@H](O[C@@H]2O[C@@H](C)C[C@H](N(C)C)[C@H]2O)[C@](C)(O)C[C@@H](C)C(=O)[C@H](C)[C@@H](O)[C@]1(C)O | 116
17 | C/C(=C\C(=O)Nc1ccccc1C(=O)O)c1ccc2ccccc2c1 | 127
18 | Oc1cc(-c2nc(-c3ccccc3)[nH]c2-c2ccncc2)ccc1Cl | 91.4
19 | C[C@@H]1C(=O)O[C@H]2CC34[C@H]5C[C@@H](C(C)(C)C)C36[C@@H](OC(=O)[C@@H]6O)O[C@@]4(C(=O)O5)[C@]21O (stereo not given in full) | 101
20 | Cc1c(C)c2c(c(C)c1O)CCC(C)(COc1ccc(CC3SC(=O)NC3=O)cc1)O2 (stereo not given) | 82

Row | SMILES | viability
21 | COc1ccc(C(=O)c2c(C)n(CCN3CCOCC3)c3ccccc23)cc1 | 122
22 | O=[N+]([O-])c1cn2c(n1)OC[C@@H](OCc1ccc(OC(F)(F)F)cc1)C2 | 111
23 | Cc1ccc(NC(=O)c2ccc(CN3CCN(C)CC3)cc2)cc1Nc1nc(-c2cccnc2)cs1 | 130
24 | Nc1nc(N)c2nc(CNc3ccc(C(=O)NC(CCC(=O)O)C(=O)O)cc3)cnc2n1 (stereo not given) | 76.6
25 | COc1c(Cl)cc2c([nH]c3cnccc32)c1NC(=O)c1cccnc1C | 96.7
26 | CC[C@]1(O)C[C@H]2CN(CCC3=C([NH]C4=C3C=CC=C4)[C@@](C2)(C(=O)OC)C5=CC6=C(C=C5OC)N(C=O)[C@H]7[C@](O)([C@H](OC(C)=O)[C@]8(CC)\C=C/C[N@@]9CC[C@]67[C@H]89)C(=O)OC)C1 | 105
27 | ClC1=CC=C2N/C3=N/C(=O)CN3CC2=C1Cl | 94.9
28 | Cc1cc(Cl)ccc1OCCCC(=O)NO | 89.3
29 | NC(CO)C(=O)NNCc1ccc(O)c(O)c1O (stereo not given) | 96.3
30 | COc1ccc(Nc2nccc(NCCO)n2)cc1 | 99.9
31 | CCCC[S+](=N)([O-])CCC(N)C(=O)O (stereo not given) | 111
32 | C[C@]12CC[C@H]3[C@@H](CC(=C)\C4=C\C(=O)\C=C/[C@]34C)[C@@H]1CCC2=O | 112
33 | CCN[C@H]1C[C@H](C)[S+](=O)([O-])c2sc([S+](N)(=O)[O-])cc21 | 103
34 | O=C(Nc1ccccc1Br)N[C@@H]1CCN(c2ccc(C(F)(F)F)cn2)C1 | 114
35 | CC1(C)O[C@H]2CC(=O)OC[C@]23[C@H]2CC[C@@]4(C)[C@H](c5ccoc5)OC(=O)[C@H]5O[C@]54[C@]2(C)C(=O)C[C@@H]13 | 139
36 | CC(C)n1nc(-c2ccc3oc(N)nc3c2)c2c(N)ncnc21 | 29.8
37 | Cc1ccc([C@@H]2O[C@H](CO)[C@@H](O)[C@H](O)[C@H]2O)cc1Cc1ccc(-c2ccc(F)cc2)s1 | 108
38 | CN[C@H]1CCC2=CC(=C(OC)C(=C2C/3=C/C=C(OC)\C(=O)/C=C13)OC)OC | 100
39 | CCN(CC)CCOc1ccc(/C(=C(\Cl)c2ccccc2)c2ccccc2)cc1 | 114

Row | SMILES | viability
40 | NC(=O)c1ncn([C@@H]2O[C@H](CO)[C@@H](O)[C@H]2O)c1O | 116
41 | COC1=C(OC)C(=O)C(C/C=C(\C)CC/C=C(\C)CC/C=C(\C)CC/C=C(\C)CC/C=C(\C)CC/C=C(\C)CC/C=C(\C)CC/C=C(\C)CC/C=C(\C)CCC=C(C)C)=C(C)C1=O | 118
42 | COc1ccccc1OCC(O)COC(N)=O (stereo not given) | 117
43 | CCOC(=O)C(C#N)C\1C2=CC(=CC=C2O\C(=C1C(=O)OCC)N)Br (stereo not given) | 120
44 | COc1cc2c(cc1OC)CC(=O)N(CCCN(C)C[C@H]1Cc3cc(OC)c(OC)cc31)CC2.Cl | 129
45 | NC/1=N/C(=O)C2=C([NH]C=C2CCC3=CC=C(C=C3)C(=O)N[C@@H](CCC(O)=O)C(O)=O)N1 | 119
46 | Cl.Cl.Clc1ccc(Nc2nnc(Cc3ccncc3)c3ccccc23)cc1 | 101
47 | CCCCc1ccc(N[S+](=O)([O-])c2ccc(C)c(C(=O)N3CCN(c4cccc(C)c4C)CC3)c2)cc1 | 111
48 | CCOC(=O)c1cncn1[C@H](C)c1ccccc1 | 111
49 | COc1ccc(C2Sc3ccccc3N(CCN(C)C)C(=O)C2OC(C)=O)cc1 (stereo not given) | 110
50 | NC/1=N/C(=O)N(/C=N1)[C@@H]2O[C@H](CO)[C@@H](O)[C@H]2O | 103
51 | C[C@@H]1CC[C@@]2(OC1)OC1CC3C4CC=C5CC(O)CCC5(C)C4CCC3(C)C1[C@@H]2C (stereo not given in full) | 120
52 | C1Cc2[nH]nc(-c3nn[nH]n3)c2C1 | 118
53 | CSCC[C@@H](NC(=O)[C@@H](Cc1ccccc1)NC(=O)CNC(=O)CNC(=O)[C@@H](N)Cc1ccc(O)cc1)C(=O)O | 126
54 | CO[C@@H](C(=O)N1Cc2[nH]nc(NC(=O)c3ccc(N4CCN(C)CC4)cc3)c2C1)c1ccccc1 | 63.5
55 | Cc1ccc([S+](=O)([O-])N[C@@H](Cc2ccccc2)C(=O)CCl)cc1 | 90.3
56 | CC1(C)O[C@@H]2C[C@H]3[C@@H]4C[C@H](F)C5=CC(=O)C=C[C@]5(C)[C@@]4(F)[C@@H](O)C[C@]3(C)[C@]2(C(=O)CO)O1 | 109
57 | CC(c1cc2ccccc2s1)N(O)C(N)=O (stereo not given) | 96.7
58 | CCCCn1c(=O)n(Cc2ccccc2F)c(=O)c2nc(Cc3ccc(NC(C)=O)cc3)[nH]c21 | 94

Same assay, conditions: library / dose series: MIPE library, 11-point 1:3 dilution; top concentration 92.2 µM; 48 h

Row | SMILES | viability
59 | COc1ccc(-c2c(-c3ccc(O)cc3O)n[nH]c2C)cc1 | 98.3
60 | CNC[C@H](O)c1ccc(O)c(O)c1 | 104
